Data taken from paper PMC9356065, “Novel psoralen derivatives as anti-breast cancer agents and their light-activated cytotoxicity against HER2 positive breast cancer cells” (Scientific Reports, 2022).
Like-named read-outs stand apart in the source and are kept apart here.

Legend:
MCF-7 = conditions: Fig. 1d; cited from earlier work
MDA-MB-231 [1] = system: MDA-MB-231; parameters: method as in doi:10.1007/s00044-014-1312-6; conditions: previously reported; cited from earlier work
[2] = system: ERα activity in MCF-7 cells; parameters: method as in PMID 31673107; conditions: read-out: IC50 antagonism of ERα activity in MCF-7 cells; cited from earlier work
MDA-MB-231 [3] = test: Dark and light-activated (UVA) cytotoxicity, MTT; type: cell-based; conditions: Homo sapiens, dark, HER2− breast cancer
SK-BR-3 [4] = test: Dark and light-activated (UVA) cytotoxicity, MTT; type: cell-based; conditions: Homo sapiens, dark, HER2+ breast cancer
[5] = Scavenging of diphenyl-picryl-hydrazyl radicals (DPPH); conditions: for DPPH %Inh: screening concentration 250 µM; for IC50: read-out: DPPH IC50
Excerpt: 1. Chemoprevention activity

[6] = system: differentiated HL-60 cells; test: Inhibition of TPA-induced superoxide anion radical generation (HL-60 Antioxidant); type: cell-based, human; conditions: screening concentration 100 µM; for inhibition at 100 µM: Homo sapiens, HL-60, read-out: HL-60 Antiox. %Inh
Excerpt: Inhibition of 12-O-tetradecanoylphorbol-13-acetate (TPA)-induced superoxide anion radical generation in differentiated HL-60 cells (HL-60 Antioxidant) TPA-induced superoxide anion radical formation was detected in differentiated HL-60 cells by photometric determination of cytochrome c reduction as previously described by Gerhäuser et al., 2003.ii Superoxide dismutase (SOD;15U) was a positive control. […]

SK-BR-3 [7] = test: Dark and light-activated (UVA) cytotoxicity, MTT; type: cell-based, human; conditions: Homo sapiens, SK-BR-3, light or radiation study; irradiation with UVA (2.0 J cm^−2); HER2+ breast cancer
Description: (§1) The selected compounds were screened for their IC50 values against both HER2+ breast cancer (SK-BR-3), and HER2− breast cancer (MDA-MB-231) in both dark and light-activated conditions (Table 2). Additionally, a negative control study was also performed with SK-BR-3 and MDA-MB-231 cells in the absence of tested compound under UVA irradiation (See Fig S7., Supporting Information).
(§2) SK-BR-3 and MDA-MB-231 cells were seeded into 96-well cell culture plates at 5 × 10^3 cells/well and incubated for 24 h at 37 °C under 5% CO2. After that, the cells were treated with 50 μM of psoralen derivatives in DMEM with 10% FBS and the cells were continued incubation for another 4 h. After incubation, the cells were washed with PBS (3 times) and then irradiated by a 365 nm lamp with the light intensity of 2.0 J cm^−2 for 12.5 min before re-incubation for another 72 h. After incubation, the cell was treated with methylthiazolyldiphenyl-tetrazolium bromide (MTT reagent 200 μL, 0.5 mg mL^−1, Sigma-Aldrich) for 2 h. After reagent removal, DMSO was added to dissolve the formazan product and the cell viabilities were determined through UV–Vis absorption of the resulting formazan at wavelength 560 nm using a microplate reader (BMG Labtech/SPECTROstar Nano). The cell morphology images were captured by using a light microscope (Microscope Nikon, inverted digital) at 20X magnification prior to treating with MTT reagent.

MDA-MB-231 [8] = test: MTT cytotoxicity, 48 h, without UVA; type: cell-based; conditions: Homo sapiens, MDA-MB-231, light or radiation study; for inhibition at 50 µg/mL: I = %inhibition lower than 50%, read-out: Cytotoxic activity MDA-MB-231 %Inhibition; for IC50: hormone-independent breast cancer, read-out: Cytotoxic activity MDA-MB-231 IC50
Description: (§3) MDA-MB-231 (triple-negative breast cancer) was obtained from M.D. Anderson Cancer Center, Houston, TX, USA). T47-D (hormone-dependent breast carcinoma), SK-BR-3 (human HER2+ breast cancer), and MRC-5 (normal embryonic lung fibroblast) were obtained from the American Type Culture Collection (ATCC, Manassas, VA, USA).
(§4) The cytotoxic effect of tested compounds was evaluated in two breast cancer cell lines, MDA-MB-231 and T47-D. Number of survival cells after exposure to tested compounds for 48 h was determined by MTT assay, as previously described.

T47-D = test: MTT cytotoxicity, 48 h, without UVA; type: cell-based, human; conditions: for IC50: hormone-dependent breast cancer, read-out: Cytotoxic activity T47-D IC50; for Selectivity Index (SI): SI = IC50 for MRC-5/IC50 for T47-D
Description: Additionally, the cytotoxicity towards normal cells, human embryonal lung fibroblast cell MRC-5 was also assessed.
as §3, §4

aromatase (CYP19) = target: T1, aromatase (CYP19) (Homo sapiens, UniProt P11511); test: Inhibition of aromatase (AIA); type: biochemical; conditions: at 12.5 µM; I = %inhibition lower than 50%; read-out: Aromatase inhibitory activity %Inhibition
T1 sequence (P11511 1-503): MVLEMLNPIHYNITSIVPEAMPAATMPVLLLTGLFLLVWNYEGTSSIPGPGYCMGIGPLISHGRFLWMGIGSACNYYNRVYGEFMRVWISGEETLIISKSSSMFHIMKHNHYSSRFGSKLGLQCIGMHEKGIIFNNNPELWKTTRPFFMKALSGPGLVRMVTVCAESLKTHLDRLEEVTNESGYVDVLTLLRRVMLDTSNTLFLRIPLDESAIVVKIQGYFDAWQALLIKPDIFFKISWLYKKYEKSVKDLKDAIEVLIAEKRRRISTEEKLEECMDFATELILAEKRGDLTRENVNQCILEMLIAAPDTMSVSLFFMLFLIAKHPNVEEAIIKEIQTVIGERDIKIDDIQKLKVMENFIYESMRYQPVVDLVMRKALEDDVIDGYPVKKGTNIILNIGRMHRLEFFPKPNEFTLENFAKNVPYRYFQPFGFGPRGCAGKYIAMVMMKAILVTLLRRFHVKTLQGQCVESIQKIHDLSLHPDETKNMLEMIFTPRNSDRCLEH
Description: Estrogens are the critical risk factor for breast cancer initiation and progression and the aromatase enzyme involves in the final step conversion of androgens to estrogens[21],[22]. […] In this study, the synthesized psoralen derivatives were also tested for aromatase inhibitory activity (AIA) which is considered to be one of chemopreventive mechanisms for hormone dependent breast cancer.
Inhibition of the aromatase was performed using the method designed by Stresser et al.[39].

SK-BR-3 cells = test: Cell morphology by light microscope; type: cell-based, human; conditions: 48 h
Description: as §2, with “After incubation, the cells were washed with PBS (3 times) and then irradiated by a 365 nm lamp with the light intensity of 2.0 J cm^−2 for 12.5 min before re-incubation for another 72 h.” left out

MDA-MB-231 [9] = test: Dark and light-activated (UVA) cytotoxicity, MTT; type: cell-based; conditions: Homo sapiens, MDA-MB-231, light or radiation study; irradiation with UVA (2.0 J cm^−2); HER2− breast cancer
Description: as §1, §2

[10] = Inhibition of superoxide radical formation by xanthine/xanthine oxidase (XXO); type: biochemical; conditions: for XXO %Inh: screening concentration 500 µM
Excerpt: 1. […]

xanthine oxidase = xanthine oxidase (Homo sapiens, UniProt P47989); test: Inhibition of xanthine oxidase (IXO); type: biochemical; conditions: for inhibition at 500 µM: screening concentration 500 µM, read-out: IXO %Inh
Description: 1. […]
Inhibition of xanthine oxidase (IXO)
Xanthine oxidase activity was determined by quantifying the amount of uric acid produced
from xanthine. […]

[11] = Homo sapiens, T47D, light or radiation study, 48 h, without UVA

Sequence of xanthine oxidase (P47989 whole entry, species assumed): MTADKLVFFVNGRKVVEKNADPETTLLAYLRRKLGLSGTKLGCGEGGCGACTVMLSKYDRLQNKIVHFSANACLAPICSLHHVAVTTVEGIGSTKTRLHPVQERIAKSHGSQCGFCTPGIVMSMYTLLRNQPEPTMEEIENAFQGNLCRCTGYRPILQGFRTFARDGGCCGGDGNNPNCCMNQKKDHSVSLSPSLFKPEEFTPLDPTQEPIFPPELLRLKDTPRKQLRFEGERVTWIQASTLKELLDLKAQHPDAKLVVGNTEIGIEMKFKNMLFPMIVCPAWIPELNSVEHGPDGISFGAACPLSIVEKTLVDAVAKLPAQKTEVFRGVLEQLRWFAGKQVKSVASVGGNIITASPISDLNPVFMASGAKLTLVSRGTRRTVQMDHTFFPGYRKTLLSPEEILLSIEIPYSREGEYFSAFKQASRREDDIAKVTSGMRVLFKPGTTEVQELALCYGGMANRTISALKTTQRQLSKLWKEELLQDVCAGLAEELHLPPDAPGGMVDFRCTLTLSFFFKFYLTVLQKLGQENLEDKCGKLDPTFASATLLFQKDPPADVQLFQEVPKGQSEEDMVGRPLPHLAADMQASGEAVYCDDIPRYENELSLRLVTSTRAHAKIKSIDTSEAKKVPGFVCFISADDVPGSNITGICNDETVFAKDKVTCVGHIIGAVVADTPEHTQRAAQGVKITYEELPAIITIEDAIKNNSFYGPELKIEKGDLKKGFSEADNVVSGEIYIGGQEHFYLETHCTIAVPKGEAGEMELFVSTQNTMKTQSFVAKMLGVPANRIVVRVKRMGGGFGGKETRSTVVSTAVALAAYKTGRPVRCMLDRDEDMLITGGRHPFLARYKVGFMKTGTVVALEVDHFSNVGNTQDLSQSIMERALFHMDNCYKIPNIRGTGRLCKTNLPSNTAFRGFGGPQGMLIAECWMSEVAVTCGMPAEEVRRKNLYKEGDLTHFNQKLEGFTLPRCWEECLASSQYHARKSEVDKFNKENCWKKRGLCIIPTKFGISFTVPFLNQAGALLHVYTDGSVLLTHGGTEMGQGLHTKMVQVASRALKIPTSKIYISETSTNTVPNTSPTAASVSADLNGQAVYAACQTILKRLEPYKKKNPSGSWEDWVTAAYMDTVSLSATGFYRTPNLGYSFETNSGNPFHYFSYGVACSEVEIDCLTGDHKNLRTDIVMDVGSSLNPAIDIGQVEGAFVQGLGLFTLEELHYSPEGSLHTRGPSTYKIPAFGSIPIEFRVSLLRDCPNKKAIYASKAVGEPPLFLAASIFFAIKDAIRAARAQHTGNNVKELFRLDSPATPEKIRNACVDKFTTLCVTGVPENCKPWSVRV

Row | SMILES | melting point [°C] | DPPH %Inh [5] [%] | inhibition at 100 µM [6] [%] | inhibition at 12.5 µM (aromatase (CYP19)) [%] | IC50 (MDA-MB-231 [8]) [µM] | XXO %Inh [10] [%] | IC50 (T47-D; [11]) [µM] | Selectivity Index (SI) (T47-D) | also measured
1 | COc1c2occc2c(NC(=O)c2cccc3ccccc23)c2ccc(=O)oc12 [VIb] | – | – | – | – | – | – | – | – | IC50 (MCF-7) (MCF-7): Inactive; IC50 (MDA-MB-231 [1]): 100 µM
2 | O=c1ccc2ccc3occc3c2o1 [angelicin] | – | – | – | – | – | – | – | – | IC50 [2]: 11 µM
3 | COc1c2occc2c(NC(=O)c2ccco2)c2ccc(=O)oc12 [3g, N-(9-Methoxy-7-oxo-7H-furo[3,2-g]chromen-4-yl)furan-2-carboxamide] | 227 to 228 | 3 | 17 | 16 | – | – | – | – | IC50 (MDA-MB-231 [3]): > 100 µM; IC50 (SK-BR-3 [4]): > 100 µM; IC50 (SK-BR-3 [7]): 2.71 ± 0.84 µM; inhibition at 50 µg/mL (MDA-MB-231 [8]): 0.5%; inhibition at 50 µg/mL (T47-D; Homo sapiens, T47D, light or radiation study, 48 h, without UVA, I = %inhibition lower than 50%, read-out: Cytotoxic activity T47-D %Inhibition): 24%; morphology of SK-BR-3 cells under light activation (SK-BR-3 cells; UVA 2.0 J cm^−2): significantly changed; morphology of SK-BR-3 cells under dark condition (SK-BR-3 cells; dark): maintained morphology of intact cells; IC50 (MDA-MB-231 [9]): > 100 µM
4 | COc1c2c(c(NC(=S)Nc3ccccc3)c3ccoc13)C(OC)CC(=O)O2 (stereo not shown) [compound 6, 1-(5,9-Dimethoxy-7-oxo-6,7-dihydro-5H-furo[3,2-g]chromen-4-yl)-3-phenylthiourea] | 191 to 192 | – | – | 18 | 91.9 ± 4.49 | 24 | > 100 | – | IC50 [5]: 52.6 µM; HL-60 Antiox. %Inh [6]: Toxic; inhibition at 500 µM (xanthine oxidase): 48%
5 | COc1c2occc2c(NCc2ccccc2)c2ccc(=O)oc12 [4a, 4-(Benzylamino)-9-methoxy-7H-furo[3,2-g]chromen-7-one] | 168 to 169 | – | 7 | 46 | > 100 | 34 | 31.1 ± 1.54 | > 5.0 | IC50 [5]: 145 µM; IC50 (xanthine oxidase): 27.4 µM
6 | CC(C)=CCOc1c2ccoc2cc2oc(=O)ccc12 [isoimperatorin] | – | – | – | – | – | – | – | – | IC50 [2]: 54.3 µM
7 | COc1c2occc2c(NS(=O)(=O)c2ccccc2)c2ccc(=O)oc12 [compound 5, N-(9-Methoxy-7-oxo-7H-furo[3,2-g]chromen-4-yl)benzenesulfonamide] | 208 to 209 | 8 | 32 | 33 | – | – | 87.9 ± 6.34 | > 1.5 | inhibition at 50 µg/mL (MDA-MB-231 [8]): 36%; IC50 ([10]; read-out: XXO IC50): 90.7 µM; inhibition at 500 µM (xanthine oxidase): 21%
8 | COc1c2occc2c(NC(=O)C23CC4CC(CC(C4)C2)C3)c2ccc(=O)oc12 [3n, (3r,5r,7r)-N-(9-Methoxy-7-oxo-7H-furo[3,2-g]chromen-4-yl)adamantane-1-carboxamide] | 240 to 242 | 1 | 8 | 5 | > 100 | 47 | 43.06 ± 0.09 | > 3.0 | IC50 (MCF-7): 0.48 µM; IC50 (MDA-MB-231 [1]): 2 µM
